Experimental data taken from US20110039721A1, “METHOD FOR PREDICTION ABOUT CARCINOGENICITY OF SUBSTANCE IN RODENT” (Chemicals Evaluation and Research Institute, priority 2007, published 2011).

What was measured:
[1] = test system: mRNA expressed from the genes (A) to (D) in rat liver; test: Behavior of genes (mRNA expression level, oligo-DNA microarray) in rat liver after 28-day oral administration; assay type: in vivo
In short: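 Male F344 SPF rats, 5 weeks old, four per group, dosed by oral gavage once daily for 28 days with test chemical or matched-volume solvent. Liver total RNA profiled on oligo-DNA microarray. Change ≥1.5-fold or ≤1/1.5 versus vehicle counted as significant if its direction matched that seen with other carcinogens.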

liver = conditions: in vivo; cited from earlier work
rodent = conditions: in vivo; cited from earlier work
[2] = gene group (A), Unigene No. Rn.167075, mRNA vs vehicle control group
[3] = gene group (C), Unigene No. Rn.120914, mRNA vs vehicle control group
[4] = (C), Unigene Rn.120914, defined direction +, rat liver, oral once daily 28 days

CN(C)c1ccc(N=Nc2ccccc2)cc1 [TS077, 4-Dimethylaminoazobenzene]
Behavior of gene caused by administration of chemical substance, Gene No. 4846 ([1]; gene group (A), Unigene No. Rn.144554, mRNA vs vehicle control group): − | Behavior of gene caused by administration of chemical substance, Gene No. 2026 [1, 2]: − | Behavior of gene caused by administration of chemical substance, Gene No. 4218 [1, 2]: − | Behavior of gene caused by administration of chemical substance, Gene No. 6182 ([1]; gene group (A), Unigene No. Rn.5834, mRNA vs vehicle control group): + | Behavior of gene caused by administration of chemical substance, Gene No. 5600 ([1]; gene group (A), Unigene No. Rn.9836, mRNA vs vehicle control group): − | Behavior of gene caused by administration of chemical substance, Gene No. 1494 ([1]; gene group (B), Unigene No. Rn.1430, mRNA vs vehicle control group): + | Behavior of gene caused by administration of chemical substance, Gene No. 2045 ([1]; gene group (B), Unigene No. Rn.19329, mRNA vs vehicle control group): + | Behavior of gene caused by administration of chemical substance, Gene No. 2203 ([1]; gene group (B), Unigene No. Rn.21240, mRNA vs vehicle control group): − | Behavior of gene caused by administration of chemical substance, Gene No. 533 ([1]; gene group (C), Unigene No. Rn.106184, mRNA vs vehicle control group): − | Behavior of gene caused by administration of chemical substance, Gene No. 725 ([1]; gene group (C), Unigene No. Rn.108075, mRNA vs vehicle control group): − | Behavior of gene caused by administration of chemical substance, Gene No. 1163 ([1]; gene group (C), Unigene No. Rn.11766, mRNA vs vehicle control group): − | Behavior of gene caused by administration of chemical substance, Gene No. 4973 ([1]; gene group (C), Unigene No. Rn.118529, mRNA vs vehicle control group): − | Behavior of gene caused by administration of chemical substance, Gene No. 4095 ([1]; gene group (C), Unigene No. Rn.119024, mRNA vs vehicle control group): − | Behavior of gene caused by administration of chemical substance, Gene No. 1334 [1, 3]: − | Behavior of gene caused by administration of chemical substance, Gene No. 6620 [1, 3]: − | Behavior of gene caused by administration of chemical substance, Gene No. 6303 ([1]; gene group (C), Unigene No. Rn.123063, mRNA vs vehicle control group): + | Behavior of gene caused by administration of chemical substance, Gene No. 5878 ([1]; gene group (C), Unigene No. Rn.143213, mRNA vs vehicle control group): − | Behavior of gene caused by administration of chemical substance, Gene No. 1131 ([1]; gene group (C), Unigene No. Rn.144946, mRNA vs vehicle control group): − | Behavior of gene caused by administration of chemical substance, Gene No. 1562 ([1]; gene group (C), Unigene No. Rn.14744, mRNA vs vehicle control group): − | Behavior of gene caused by administration of chemical substance, Gene No. 1741 ([1]; gene group (C), Unigene No. Rn.1647, mRNA vs vehicle control group): − | Behavior of gene caused by administration of chemical substance, Gene No. 893 ([1]; gene group (C), Unigene No. Rn.164817, mRNA vs vehicle control group): − | Behavior of gene caused by administration of chemical substance, Gene No. 6026 ([1]; gene group (C), Unigene No. Rn.167685, mRNA vs vehicle control group): + | Behavior of gene caused by administration of chemical substance, Gene No. 154 ([1]; gene group (C), Unigene No. Rn.185941, mRNA vs vehicle control group): − | Behavior of gene caused by administration of chemical substance, Gene No. 1993 ([1]; gene group (C), Unigene No. Rn.18728, mRNA vs vehicle control group): − | Behavior of gene caused by administration of chemical substance, Gene No. 813 ([1]; gene group (C), Unigene No. Rn.201760, mRNA vs vehicle control group): − | Behavior of gene caused by administration of chemical substance, Gene No. 2494 ([1]; gene group (C), Unigene No. Rn.23969, mRNA vs vehicle control group): − | Behavior of gene caused by administration of chemical substance, Gene No. 2546 ([1]; gene group (C), Unigene No. Rn.24561, mRNA vs vehicle control group): − | Behavior of gene caused by administration of chemical substance, Gene No. 3776 ([1]; gene group (C), Unigene No. Rn.43232, mRNA vs vehicle control group): − | Behavior of gene caused by administration of chemical substance, Gene No. 3929 ([1]; gene group (C), Unigene No. Rn.4620, mRNA vs vehicle control group): − | Behavior of gene caused by administration of chemical substance, Gene No. 1119 ([1]; gene group (C), Unigene No. Rn.9757, mRNA vs vehicle control group): − | Behavior of gene caused by administration of chemical substance, Gene No. 6742 ([1]; gene group (C), Unigene No. Rn.9779, mRNA vs vehicle control group): − | Behavior of gene caused by administration of chemical substance, Gene No. 5634 ([1]; gene group (C), Unigene No. Rn.9862, mRNA vs vehicle control group): − | Behavior of gene caused by administration of chemical substance, Gene No. 5726 ([1]; gene group (D), Unigene No. Rn.9939, mRNA vs vehicle control group): + | Liver carcinogenicity (liver): Cr+ | Carcinogenicity (rodent): C+

c1ccc2ncccc2c1 [TS006, Quinoline]
Behavior of gene caused by administration of chemical substance, Gene No. 4846 ([1]; (A), Unigene Rn.144554, defined direction +, rat liver, oral once daily 28 days): + | Behavior of gene caused by administration of chemical substance, Gene No. 4218 ([1]; (A), Unigene Rn.167075, defined direction +, rat liver, oral once daily 28 days, significant = 1.5 times or more or 1/1.5 or less of control): − | Behavior of gene caused by administration of chemical substance, Gene No. 2026 ([1]; (A), Unigene Rn.167075, defined direction −, rat liver, oral once daily 28 days): + | Behavior of gene caused by administration of chemical substance, Gene No. 6182 ([1]; (A), Unigene Rn.5834, defined direction +, rat liver, oral once daily 28 days): − | Behavior of gene caused by administration of chemical substance, Gene No. 5600 ([1]; (A), Unigene Rn.9836, defined direction +, rat liver, oral once daily 28 days): − | Behavior of gene caused by administration of chemical substance, Gene No. 1494 ([1]; (B), Unigene Rn.1430, defined direction −, rat liver, oral once daily 28 days): + | Behavior of gene caused by administration of chemical substance, Gene No. 2045 ([1]; (B), Unigene Rn.19329, defined direction +, rat liver, oral once daily 28 days): − | Behavior of gene caused by administration of chemical substance, Gene No. 2203 ([1]; (B), Unigene Rn.21240, defined direction +, rat liver, oral once daily 28 days): − | Behavior of gene caused by administration of chemical substance, Gene No. 533 ([1]; (C), Unigene Rn.106184, defined direction +, rat liver, oral once daily 28 days): − | Behavior of gene caused by administration of chemical substance, Gene No. 725 ([1]; (C), Unigene Rn.108075, defined direction −, rat liver, oral once daily 28 days): − | Behavior of gene caused by administration of chemical substance, Gene No. 1163 ([1]; (C), Unigene Rn.11766, defined direction +, rat liver, oral once daily 28 days): − | Behavior of gene caused by administration of chemical substance, Gene No. 4973 ([1]; (C), Unigene Rn.118529, defined direction −, rat liver, oral once daily 28 days): − | Behavior of gene caused by administration of chemical substance, Gene No. 4095 ([1]; (C), Unigene Rn.119024, defined direction −, rat liver, oral once daily 28 days): − | Behavior of gene caused by administration of chemical substance, Gene No. 1334 [1, 4]: − | Behavior of gene caused by administration of chemical substance, Gene No. 6620 [1, 4]: − | Behavior of gene caused by administration of chemical substance, Gene No. 6303 ([1]; (C), Unigene Rn.123063, defined direction −, rat liver, oral once daily 28 days): − | Behavior of gene caused by administration of chemical substance, Gene No. 5878 ([1]; (C), Unigene Rn.143213, defined direction −, rat liver, oral once daily 28 days): − | Behavior of gene caused by administration of chemical substance, Gene No. 1131 ([1]; (C), Unigene Rn.144946, defined direction −, rat liver, oral once daily 28 days): − | Behavior of gene caused by administration of chemical substance, Gene No. 1562 ([1]; (C), Unigene Rn.14744, defined direction −, rat liver, oral once daily 28 days): − | Behavior of gene caused by administration of chemical substance, Gene No. 1741 ([1]; (C), Unigene Rn.1647, defined direction −, rat liver, oral once daily 28 days): − | Behavior of gene caused by administration of chemical substance, Gene No. 893 ([1]; (C), Unigene Rn.164817, defined direction +, rat liver, oral once daily 28 days): − | Behavior of gene caused by administration of chemical substance, Gene No. 6026 ([1]; (C), Unigene Rn.167685, defined direction −, rat liver, oral once daily 28 days): − | Behavior of gene caused by administration of chemical substance, Gene No. 154 ([1]; (C), Unigene Rn.185941, defined direction −, rat liver, oral once daily 28 days): − | Behavior of gene caused by administration of chemical substance, Gene No. 1993 ([1]; (C), Unigene Rn.18728, defined direction −, rat liver, oral once daily 28 days): − | Behavior of gene caused by administration of chemical substance, Gene No. 813 ([1]; (C), Unigene Rn.201760, defined direction +, rat liver, oral once daily 28 days): + | Behavior of gene caused by administration of chemical substance, Gene No. 2494 ([1]; (C), Unigene Rn.23969, defined direction +, rat liver, oral once daily 28 days): − | Behavior of gene caused by administration of chemical substance, Gene No. 2546 ([1]; (C), Unigene Rn.24561, defined direction −, rat liver, oral once daily 28 days): − | Behavior of gene caused by administration of chemical substance, Gene No. 3776 ([1]; (C), Unigene Rn.43232, defined direction −, rat liver, oral once daily 28 days): − | Behavior of gene caused by administration of chemical substance, Gene No. 3929 ([1]; (C), Unigene Rn.4620, defined direction +, rat liver, oral once daily 28 days): − | Behavior of gene caused by administration of chemical substance, Gene No. 1119 ([1]; (C), Unigene Rn.9757, defined direction +, rat liver, oral once daily 28 days): − | Behavior of gene caused by administration of chemical substance, Gene No. 6742 ([1]; (C), Unigene Rn.9779, defined direction +, rat liver, oral once daily 28 days): − | Behavior of gene caused by administration of chemical substance, Gene No. 5634 ([1]; (C), Unigene Rn.9862, defined direction −, rat liver, oral once daily 28 days): − | Behavior of gene caused by administration of chemical substance, Gene No. 5726 ([1]; (D), Unigene Rn.9939, defined direction −, rat liver, oral once daily 28 days): − | Liver carcinogenicity (liver): Cr+ | Carcinogenicity (rodent): C+
